Laboratory results as given in patent publication US8901305B2, “Aryl lactam kinase inhibitors” (Bristol-Myers Squibb Company, priority 2012, dated 2014).

Tests used:
[1] = system: formalin paw test in mice; test: formalin paw test (pain response); type: in vivo
Experimental: AAK1 homozygous (−/−) and their wild-type (+/+) littermates were tested using the formalin paw test in order to assess their acute and tonic nociceptive responses. For these tests, Automatic Nociception Analyzers (purchased from the Ozaki lab at University of California, San Diego) were used. A metal band was placed around the left hind paw of each mouse 30 minutes prior to testing. After the 30-minute acclimation period, 20 μl of 5% formalin is subcutaneously injected in the dorsal surface of the left hind paw. Mice were individually housed in cylindrical chambers for 45 minutes. Fresh 5% formalin solution was prepared by diluting formaldehyde (Formalde-fresh 20%, Fisher Scientific, Fair Lawn, N.J.) with distilled water. Investigatory compounds were administered 30 minutes prior to formalin injection.
A computer recorded flinches per minute, total flinches for phase I (acute phase=first 8 minutes), and total flinches for phase II (tonic phase=time between minutes 20-40) through an electromagnetic field. See Yaksh T L, Ozaki G, McCumber D, Rathbun M, Svensson C, Malkmus S, Yaksh M C. An automated flinch detecting system for use in the formalin nociceptive bioassay. J Appl Physiol., 2001; 90:2386-402.
The same test was used to confirm that the administration of an AAK1 inhibitor can also affect pain response.
A compound of the disclosure was tested in this assay at different doses. Gabapentin and pregabalin were used as positive controls. Results are shown below in Table 2, wherein the effect of gabapentin at 200 mg/kg is considered a 100% response, the % response for the other compounds is relative to the 200 mg/kg dose of gabapentin, “sc” means subcutaneous administration; “po” means oral administration.

[2] = biological target: T1, AAK1 (full length human) with AP2M1 in HEK293F cells (Homo sapiens, UniProt Q2M2I8); test: HEK281 cell-based assay (phospho-mu2 Western blot in transfected HEK293F cells); conditions: 3 hours, inhibition of mu2 phosphorylation
T1 construct: expressed in transfected cells; host or cells: HEK293F
T1 sequence (Q2M2I8 whole entry): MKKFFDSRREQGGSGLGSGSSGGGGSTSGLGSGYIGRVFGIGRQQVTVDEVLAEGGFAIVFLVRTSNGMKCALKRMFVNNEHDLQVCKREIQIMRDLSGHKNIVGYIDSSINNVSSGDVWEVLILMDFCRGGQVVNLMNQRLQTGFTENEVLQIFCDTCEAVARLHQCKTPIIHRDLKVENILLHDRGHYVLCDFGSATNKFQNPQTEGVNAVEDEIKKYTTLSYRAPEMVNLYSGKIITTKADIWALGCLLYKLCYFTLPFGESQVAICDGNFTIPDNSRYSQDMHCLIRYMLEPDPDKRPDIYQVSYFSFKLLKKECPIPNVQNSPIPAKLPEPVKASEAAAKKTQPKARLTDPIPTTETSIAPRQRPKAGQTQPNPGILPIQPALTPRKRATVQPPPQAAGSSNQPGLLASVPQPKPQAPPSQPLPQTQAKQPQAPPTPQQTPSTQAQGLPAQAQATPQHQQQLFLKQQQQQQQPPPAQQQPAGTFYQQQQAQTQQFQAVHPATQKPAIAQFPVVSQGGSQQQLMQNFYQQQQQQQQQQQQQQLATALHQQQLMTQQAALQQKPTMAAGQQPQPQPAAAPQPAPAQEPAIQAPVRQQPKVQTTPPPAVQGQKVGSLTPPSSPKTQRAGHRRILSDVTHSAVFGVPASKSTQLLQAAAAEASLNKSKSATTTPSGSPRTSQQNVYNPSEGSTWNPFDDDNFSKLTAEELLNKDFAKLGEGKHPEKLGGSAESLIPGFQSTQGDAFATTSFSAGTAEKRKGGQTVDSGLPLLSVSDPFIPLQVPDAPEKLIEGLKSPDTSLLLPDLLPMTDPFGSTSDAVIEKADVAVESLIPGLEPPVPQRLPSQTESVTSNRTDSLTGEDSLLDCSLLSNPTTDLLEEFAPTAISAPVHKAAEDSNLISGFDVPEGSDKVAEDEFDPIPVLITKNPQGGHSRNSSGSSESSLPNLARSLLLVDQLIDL
Experimental: HEK293F cells were cultured in media containing DMEM (Gibco, cat. #11965), 10% FBS (SAFC Biosciences, cat. #12103C), 1×GPS (glutamine, penicillin and streptomycin). On day one, cells were plated on a 10 cm dish so that they are ˜80% confluent at time of transfection. Roughly 12 million cells were in a 10 cm dish at time of transfection. On day two, each dish was transfected with 48 ug DNA and 144 ul Lipofectamine 2000 (Invitrogen, cat. #11668-019). The DNA was comprised of a mixture (per 10 cm dish) containing 3 ug AAK1/HA/pIRES (full length human, NCBI accession no. NP_055726.2), 45 μg Flag/AP2MI/pcDNA (full length human), and 1.5 ml OPTI-MEM. The Lipofectamine 2000 is made up of a mixture (per 10 cm dish) containing 144 μl Lipofectamine 2000 and 1.5 ml OPTI-MEM. Each mixture was transferred to individual 15 ml tubes and incubated at RT for 5 minutes, and then the two mixes were combined and incubated at RT for 20 minutes. Growth media was then aspirated from each 10 cm plate and replaced with 10 ml of DMEM+10% FBS (no GPS). Finally, 3 ml DNA/Lipofectamine mix was added to each 10 cm dish and mix gently followed by incubate of plate overnight at 37° C. and 5% CO2.
On day three, compounds were diluted in 100% DMSO at 1000× final concentration, followed by 3-fold serial dilutions for a total of 5 concentrations tested. Four compounds were tested per 10 cm dish. One ul of each compound dilution was then pipetted into a deep-well, 96-well plate, followed by addition of 500 μl DMEM+0.5% FBS into each well for a 2× final concentration of each compound. Cells were resuspended in a 10 cm dish by simple pipetting (HEK293 cells come off the plate that easy at this point) and then transferred to a 50 ml conical tube and pelleted by centrifugation at 1000 rpm for 5 min. Cell pellets were then resuspended in 2.75 ml DMEM+0.5% FBS per 10 cm dish and 100 μl of cell suspension transferred into each well of 96-well TC plate. Finally, 100 μl of 2× compound diluted in DMEM+0.5% FBS was then added into wells containing cell suspension for a 1× final concentration. Plates were then incubated at 37° C. and 5% CO2 for 3 hours followed by transferring of cell suspensions from each well into 12-tube PCR strips. The PCR strips were spun in a tip rack at 1000 rpm for 5 minutes to pellet cells and media was then removed by pipetting without disturbing the cell pellet.
To prepare for Western Blot analysis, cell pellets were resuspend in 40 ul 1×LDS-PAGE sample buffer (Invitrogen, cat. # NP0008)+2× Halt phosphatase and protease inhibitor cocktail (Thermo Scientific, cat. #1861284), followed by sonicating each with microtip sonicator set at 5 for 8-10 seconds. Five ul of 10× NuPage Sample Reducing Agent (with […]) was to each sample followed by heat denaturing at 70 C for 10 min on PCR machine. A total of 10 μl per sample was loaded into each lane of a 4-20% Tris-Glycine Criterion 26-well gel (Biorad, cat. #345-0034) for the phospho-mu2 blot and 10 μl per lane in a 4-12% Bis-Tris (+MES buffer) NuPAGE 26-well gel (Invitrogen, cat. # WG1403BX10) for the mu2 blot. For controls, 2 ng of phospho-mu2 or 20 ng mu2/Flag proteins were loaded in the last well of each gel. After SDS-PAGE, samples on each gel were transferred to PVDF membrane using an iBlot and membranes were blocked for one hour in TBST+5% milk, followed by wash 3× for 5-10 min with TBST. Criterion gels were probed with rabbit anti-phospho-mu2 (1:5000; a rabbit polyclonal antibody produced by New England Peptide and affinity purified at Lexicon) in TBST+5% BSA, whereas, NuPAGE gels were probed with mouse anti-Flag (1:500; Sigma, cat. # F1804) in TBST+5% milk, and these primary antibodies were incubated overnight at 4° C. on a rocker. […]

GST-Xa-hAAK1 = biological target: T2, GST-Xa-hAAK1 (Homo sapiens, UniProt Q2M2I8); test: AAK1 kinase assay; type: biochemical; conditions: given as IC50 range; ATP 22 μM, 3 hours at room temperature
T2 construct: made in house
T2 sequence (Q2M2I8 whole entry): as above
Procedure, shortened: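 Bacterially expressed GST-Xa-hAAK1 was combined with substrates and compounds (eleven concentrations) and incubated 3 h at room temperature, then stopped with EDTA. Fluorescent substrate and phosphorylated product were separated electrophoretically (Caliper LabChip), and IC50 values came from non-linear regression.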

[3] = 50 mg/kg sc, relative to gabapentin 200 mg/kg = 100%

Compound | Response [1, 3] [%] | Response ([1]; 200 mg/kg sc, considered a 100% response) [%] | IC50 [2] [nM] | IC50 (GST-Xa-hAAK1) [nM] | IC50 ([2]; given as IC50 range) [nM]
CC(C)C[C@H](CN)CC(=O)O [Pregabalin, pregabalin] | 90 | – | – | – | –
NCC1(CC(=O)O)CCCCC1 [Gabapentin, gabapentin] | 60 | 100 | – | – | –
CC(C)C[C@H](N)COc1cc2c(cc1C1CC1)c1ccncc1c(=O)n2C [Example 6, (S)-8-((2-amino-4-methylpentyl)oxy)-9-cyclopropyl-6-methylbenzo[c][2,7]naphthyridin-5(6H)-one] | – | – | 2.1 | 1 to 10 | –
Cc1nccc2c1c(=O)n(C)c1cc(OC[C@H](N)CC(C)C)c(Cl)cc21 [Example 20, (R)-8-((2-amino-4-methylpentyl)oxy)-9-chloro-4,6-dimethylbenzo[c][2,7]naphthyridin-5(6H)-one] | – | – | – | 1 to 10 | 1 to 10
CC(C)CC(C)(N)COc1ccc2c3c(F)cncc3c(=O)n(C)c2c1 (stereo not drawn) [Example 97, 8-(2-amino-2,4-dimethylpentyloxy)-1-fluoro-6-methylbenzo[c][2,7]naphthyridin-5(6H)-one] | – | – | – | 1 to 10 | 10 to 100
